Source: ChEMBL document CHEMBL5034031, “Discovery of Next-Generation Tropomyosin Receptor Kinase Inhibitors for Combating Multiple Resistance Associated with Protein Mutation” (J Med Chem, 2021)
pIC50: −log10 of the molar value.

What was measured:
[1] = Metabolic stability in human liver microsomes assessed as half life at 1 uM measured upto 90 mins in presence of NADPH regenerating system by LC-MS/MS analysis; format: ADME, Microsome
[2] = molecular target: NT-3 growth factor receptor (Homo sapiens) (UniProt Q16288); assay: Inhibition of TRKC (unknown origin) at 1 uM relative to control
[3] = molecular target: [Pyruvate dehydrogenase (acetyl-transferring)] kinase isozyme 1, mitochondrial (Homo sapiens) (UniProt Q15118); assay: Inhibition of PDK1 (unknown origin) at 1 uM relative to control
[4] = Plasma protein binding in rat; format: ADME, cell-free; conditions: read-out: PPB (converted)
BaF3 [5] = assay: Antitumor activity against mouse BAF3 cells harboring TMP3 fused wild type TRKA xenografted in BALB/c nude mouse assessed as tumor growth inhibition at 5 mg/kg, po administered twice daily for 12 to […] consecutive days; format: functional; conditions: time 12-14 day, read-out: TGI
[6] = molecular target: Misshapen-like kinase 1 (Homo sapiens) (UniProt Q8N4C8); assay: Inhibition of MINK1 (unknown origin) at 1 uM relative to control
[7] = Cmax in Beagle dog at 5 mg/kg, ig measured upto 24 hrs by LC-MS/MS analysis; format: ADME, organism-based, Canis lupus familiaris; parameters: route […], dose 5 mg/kg, time <=24; conditions: in vivo, po
[8] = molecular target: Serine/threonine-protein kinase Nek6 (Homo sapiens) (UniProt Q9HC98); assay: Inhibition of NEK6 (unknown origin) at 1 uM relative to control
[9] = Toxicity in BALB/c nude mouse xenografted with mouse BAF3 cells harboring TMP3 fused TRKA G595R mutant assessed as mortality at 30 mg/kg, po administered twice daily for 12 to […] consecutive days; format: organism-based; conditions: in vivo, time 12-14 day
[10] = Half life in Beagle dog at 1 mg/kg, iv measured upto 24 hrs by LC-MS/MS analysis; format: ADME, organism-based, Canis lupus familiaris; conditions: in vivo
BaF3 [11] = assay: Antiproliferative activity against mouse BaF3 cells transfected with ETV6-wild type TRKA assessed as cell viability incubated for 72 hrs by CCK8 assay; format: functional, cell-based; conditions: BaF3, 72 h
[12] = molecular target: RAC-alpha serine/threonine-protein kinase (Homo sapiens) (UniProt P31749); assay: Inhibition of AKT1 (unknown origin) at 1 uM relative to control
BaF3 [13] = assay: Antiproliferative activity against mouse BAF3 cells transfected with LMNA-TRKA G595R mutant assessed as cell viability incubated for 72 hrs by CCK8 assay; format: functional, cell-based; conditions: BaF3, 72 h
[14] = AUC(0 to infinity) in Beagle dog at 1 mg/kg, iv measured upto 24 hrs by LC-MS/MS analysis; format: ADME, organism-based, Canis lupus familiaris; parameters: route intravenous, dose 1 mg/kg, time <=24; conditions: in vivo
[15] = molecular target: Calcium/calmodulin-dependent protein kinase type II subunit beta (Homo sapiens) (UniProt Q13554); assay: Inhibition of CAMK2 (unknown origin) at 1 uM relative to control
[16] = molecular target: Voltage-gated inwardly rectifying potassium channel KCNH2 (Homo sapiens, UniProt Q12809); assay: Inhibition of hERG
[17] = AUC(0 to infinity) in Sprague-Dawley rat at 5 mg/kg, ig measured upto 24 hrs by LC-MS/MS analysis; format: ADME, organism-based; parameters: route […], dose 5 mg/kg, time <=24; conditions: in vivo, po
[18] = molecular target: Proto-oncogene tyrosine-protein kinase Src (Homo sapiens) (UniProt P12931); assay: Inhibition of SRC (unknown origin) at 1 uM relative to control
[19] = molecular target: Serine/threonine-protein kinase mTOR (Homo sapiens) (UniProt P42345); assay: Inhibition of mTOR (unknown origin) at 1 uM relative to control
[20] = Toxicity in BALB/c nude mouse xenografted with mouse BAF3 cells harboring TMP3 fused TRKA G595R mutant assessed as body weight loss at 30 mg/kg, po administered twice daily for 12 to 14 consecutive days; format: organism-based; conditions: in vivo, time 12-14 day
[21] = Clearance in Sprague-Dawley rat at 5 mg/kg, ig measured upto 24 hrs by LC-MS/MS analysis; format: ADME, organism-based; conditions: in vivo, po
[22] = molecular target: Mast/stem cell growth factor receptor Kit (Homo sapiens) (UniProt P10721); assay: Inhibition of KIT (unknown origin) at 1 uM relative to control
[23] = Toxicity in BALB/c mouse xenografted with mouse BAF3 cells harboring TMP3 fused wild type TRKA assessed as mortality at 15 mg/kg, po administered twice daily for 12 to […] consecutive days; format: organism-based; conditions: in vivo, time 12-14 day
[24] = Toxicity in BALB/c mouse xenografted with mouse BAF3 cells harboring ETV6 fused TRKC G623R mutant assessed as mortality at 15 to 30 mg/kg, po administered twice daily for 12 to […] consecutive days; format: organism-based; conditions: in vivo, dose lower 15 mg/kg, time lower 12 day, dose upper 30 mg/kg, time upper 14 day
[25] = Oral bioavailability in Beagle dog at 5 mg/kg measured upto 24 hrs by LC-MS/MS analysis; format: ADME, organism-based, Canis lupus familiaris; conditions: in vivo
[26] = molecular target: Insulin-like growth factor 1 receptor (Homo sapiens) (UniProt P08069); assay: Inhibition of IGF1R (unknown origin) at 1 uM relative to control
BaF3 [27] = assay: Antiproliferative activity against mouse BaF3 cells transfected with ETV6-wild type TRKB assessed as cell viability incubated for 72 hrs by CCK8 assay; format: functional, cell-based; conditions: BaF3, 72 h
[28] = molecular target: Inhibitor of nuclear factor kappa-B kinase subunit beta (Homo sapiens) (UniProt O14920); assay: Inhibition of IKBKB (unknown origin) at 1 uM relative to control
BaF3 [29] = assay: animal or person; format: functional; conditions: Mus musculus, BaF3, po; dose 100 mg/kg; time 12-14 day; read-out: TGI
[30] = molecular target: Homeodomain-interacting protein kinase 1 (Homo sapiens) (UniProt Q86Z02); assay: Inhibition of HIPK1 (unknown origin) at 1 uM relative to control
[31] = molecular target: Cytoplasmic tyrosine-protein kinase BMX (Homo sapiens) (UniProt P51813); assay: Inhibition of BMX (unknown origin) at 1 uM relative to control
[32] = Toxicity in BALB/c mouse xenografted with mouse BAF3 cells harboring ETV6 fused TRKC G623R mutant assessed as body weight loss at 15 to 30 mg/kg, po administered twice daily for 12 to 14 consecutive days; format: organism-based; conditions: in vivo, dose lower 15 mg/kg, time lower 12 day, dose upper 30 mg/kg, time upper 14 day
[33] = molecular target: Maternal embryonic leucine zipper kinase (Homo sapiens) (UniProt Q14680); assay: Inhibition of MELK (unknown origin) at 1 uM relative to control
[34] = Clearance in Beagle dog at 5 mg/kg, ig measured upto 24 hrs by LC-MS/MS analysis; format: ADME, organism-based, Canis lupus familiaris; conditions: in vivo, po
[35] = molecular target: PAS domain-containing serine/threonine-protein kinase (Homo sapiens) (UniProt Q96RG2); assay: Inhibition of PASK (unknown origin) at 1 uM relative to control
[36] = molecular target: Proto-oncogene tyrosine-protein kinase ROS (Homo sapiens) (UniProt P08922); assay: Inhibition of ROS1 (unknown origin) at 1 uM relative to control
[37] = molecular target: Tyrosine-protein kinase ZAP-70 (Homo sapiens) (UniProt P43403); assay: Inhibition of ZAP70 (unknown origin) at 1 uM relative to control
[38] = molecular target: Dual specificity protein kinase CLK2 (Homo sapiens) (UniProt P49760); assay: Inhibition of CLK2 (unknown origin) at 1 uM relative to control
[39] = molecular target: Mitogen-activated protein kinase 3 (Homo sapiens) (UniProt P27361); assay: Inhibition of ERK1 (unknown origin) at 1 uM relative to control

Chain of Proto-oncogene tyrosine-protein kinase Src (Homo sapiens) (P12931 2-536 limits assumed): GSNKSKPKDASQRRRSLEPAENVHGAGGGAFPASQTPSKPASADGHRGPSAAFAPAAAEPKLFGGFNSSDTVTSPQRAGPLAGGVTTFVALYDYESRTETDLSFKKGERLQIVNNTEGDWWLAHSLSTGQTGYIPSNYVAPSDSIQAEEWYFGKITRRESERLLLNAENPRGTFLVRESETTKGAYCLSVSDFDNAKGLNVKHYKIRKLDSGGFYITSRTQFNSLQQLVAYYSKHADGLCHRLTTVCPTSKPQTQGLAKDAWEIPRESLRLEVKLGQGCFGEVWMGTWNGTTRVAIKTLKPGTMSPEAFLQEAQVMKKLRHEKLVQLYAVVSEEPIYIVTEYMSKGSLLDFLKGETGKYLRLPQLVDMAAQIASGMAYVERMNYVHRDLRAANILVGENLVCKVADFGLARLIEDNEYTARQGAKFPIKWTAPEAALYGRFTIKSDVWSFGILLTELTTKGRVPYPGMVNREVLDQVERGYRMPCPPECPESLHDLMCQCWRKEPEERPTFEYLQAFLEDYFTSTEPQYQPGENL
Chain of Mast/stem cell growth factor receptor Kit (Homo sapiens) (P10721 whole entry, the tested form may be a part): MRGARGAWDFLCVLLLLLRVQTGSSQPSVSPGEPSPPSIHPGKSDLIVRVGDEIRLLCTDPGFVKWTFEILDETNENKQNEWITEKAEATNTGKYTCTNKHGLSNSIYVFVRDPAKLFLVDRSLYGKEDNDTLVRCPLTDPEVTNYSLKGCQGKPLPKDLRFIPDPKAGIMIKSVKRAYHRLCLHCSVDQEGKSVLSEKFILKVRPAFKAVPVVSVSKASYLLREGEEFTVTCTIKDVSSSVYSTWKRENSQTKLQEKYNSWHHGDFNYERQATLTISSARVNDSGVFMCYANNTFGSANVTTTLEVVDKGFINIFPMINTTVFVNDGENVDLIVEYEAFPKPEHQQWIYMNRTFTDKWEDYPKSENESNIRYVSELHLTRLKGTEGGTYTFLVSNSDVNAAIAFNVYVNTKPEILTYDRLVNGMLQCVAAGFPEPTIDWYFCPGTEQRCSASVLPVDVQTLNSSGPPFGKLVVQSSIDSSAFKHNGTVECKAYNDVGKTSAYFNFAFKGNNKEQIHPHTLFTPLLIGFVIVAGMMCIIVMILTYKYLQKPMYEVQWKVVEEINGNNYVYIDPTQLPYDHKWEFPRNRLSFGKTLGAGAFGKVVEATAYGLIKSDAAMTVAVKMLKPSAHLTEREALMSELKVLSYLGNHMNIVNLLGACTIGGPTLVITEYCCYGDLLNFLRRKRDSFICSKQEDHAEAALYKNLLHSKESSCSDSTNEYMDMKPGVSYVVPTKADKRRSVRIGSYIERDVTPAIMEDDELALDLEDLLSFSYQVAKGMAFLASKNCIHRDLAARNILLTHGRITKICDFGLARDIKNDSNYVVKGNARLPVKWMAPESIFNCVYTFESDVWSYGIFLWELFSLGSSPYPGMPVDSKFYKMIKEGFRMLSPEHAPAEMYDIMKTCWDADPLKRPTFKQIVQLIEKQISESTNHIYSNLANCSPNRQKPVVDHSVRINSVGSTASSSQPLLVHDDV
Chain of Tyrosine-protein kinase ZAP-70 (Homo sapiens) (P43403 whole entry): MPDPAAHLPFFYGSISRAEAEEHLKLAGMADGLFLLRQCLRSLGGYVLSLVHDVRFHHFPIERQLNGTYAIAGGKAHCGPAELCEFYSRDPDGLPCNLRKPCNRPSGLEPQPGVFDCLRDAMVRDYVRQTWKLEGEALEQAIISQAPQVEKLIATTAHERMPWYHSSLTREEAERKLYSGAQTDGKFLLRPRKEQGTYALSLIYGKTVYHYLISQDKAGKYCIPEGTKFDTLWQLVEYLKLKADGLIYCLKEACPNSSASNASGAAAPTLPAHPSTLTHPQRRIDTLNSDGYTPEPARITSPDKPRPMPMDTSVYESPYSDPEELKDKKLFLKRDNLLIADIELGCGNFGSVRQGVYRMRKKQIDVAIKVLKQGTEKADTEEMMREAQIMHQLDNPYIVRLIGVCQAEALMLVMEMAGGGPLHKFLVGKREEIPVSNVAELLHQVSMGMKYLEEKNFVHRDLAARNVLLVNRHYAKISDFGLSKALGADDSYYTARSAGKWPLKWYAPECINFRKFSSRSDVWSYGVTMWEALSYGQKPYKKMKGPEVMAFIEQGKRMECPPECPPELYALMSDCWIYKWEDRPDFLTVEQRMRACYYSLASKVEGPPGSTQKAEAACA
Chain of Serine/threonine-protein kinase Nek6 (Homo sapiens) (Q9HC98 whole entry, the tested form may be a part): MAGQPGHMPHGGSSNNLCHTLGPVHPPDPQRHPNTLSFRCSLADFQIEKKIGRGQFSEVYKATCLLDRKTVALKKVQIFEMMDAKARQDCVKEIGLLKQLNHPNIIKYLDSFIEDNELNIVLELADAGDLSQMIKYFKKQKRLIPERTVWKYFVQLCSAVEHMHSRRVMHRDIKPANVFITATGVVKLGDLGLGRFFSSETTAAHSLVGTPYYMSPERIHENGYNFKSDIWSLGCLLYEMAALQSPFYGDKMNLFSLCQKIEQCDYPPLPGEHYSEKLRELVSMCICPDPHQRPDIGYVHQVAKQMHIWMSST
Chain of Dual specificity protein kinase CLK2 (Homo sapiens) (P49760 whole entry, looked up): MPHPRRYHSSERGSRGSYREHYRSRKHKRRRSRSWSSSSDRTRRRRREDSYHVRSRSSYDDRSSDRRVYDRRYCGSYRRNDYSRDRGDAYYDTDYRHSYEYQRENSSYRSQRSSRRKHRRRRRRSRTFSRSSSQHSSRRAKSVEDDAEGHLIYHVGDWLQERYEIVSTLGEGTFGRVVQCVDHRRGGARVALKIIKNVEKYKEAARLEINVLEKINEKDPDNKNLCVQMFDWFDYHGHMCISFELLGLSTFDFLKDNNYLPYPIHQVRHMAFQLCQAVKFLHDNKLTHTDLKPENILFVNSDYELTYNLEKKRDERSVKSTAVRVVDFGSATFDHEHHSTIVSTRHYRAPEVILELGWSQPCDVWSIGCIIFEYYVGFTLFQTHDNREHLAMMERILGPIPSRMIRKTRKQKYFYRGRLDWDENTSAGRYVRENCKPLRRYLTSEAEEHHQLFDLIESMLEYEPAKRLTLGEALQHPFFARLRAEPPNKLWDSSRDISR
Chain of RAC-alpha serine/threonine-protein kinase (Homo sapiens) (P31749 whole entry): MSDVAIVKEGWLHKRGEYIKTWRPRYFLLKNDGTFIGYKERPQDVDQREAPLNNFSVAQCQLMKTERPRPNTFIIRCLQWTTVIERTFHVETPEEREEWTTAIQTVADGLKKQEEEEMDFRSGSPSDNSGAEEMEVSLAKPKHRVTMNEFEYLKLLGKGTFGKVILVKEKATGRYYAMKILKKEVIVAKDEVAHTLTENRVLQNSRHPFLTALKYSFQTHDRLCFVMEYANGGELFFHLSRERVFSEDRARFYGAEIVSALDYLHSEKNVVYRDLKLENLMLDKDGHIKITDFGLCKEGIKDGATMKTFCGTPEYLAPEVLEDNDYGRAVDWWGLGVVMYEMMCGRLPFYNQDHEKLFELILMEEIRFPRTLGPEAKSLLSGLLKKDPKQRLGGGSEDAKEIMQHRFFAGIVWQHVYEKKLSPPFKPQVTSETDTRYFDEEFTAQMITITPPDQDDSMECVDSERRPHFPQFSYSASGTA
Chain of Inhibitor of nuclear factor kappa-B kinase subunit beta (Homo sapiens) (O14920 whole entry): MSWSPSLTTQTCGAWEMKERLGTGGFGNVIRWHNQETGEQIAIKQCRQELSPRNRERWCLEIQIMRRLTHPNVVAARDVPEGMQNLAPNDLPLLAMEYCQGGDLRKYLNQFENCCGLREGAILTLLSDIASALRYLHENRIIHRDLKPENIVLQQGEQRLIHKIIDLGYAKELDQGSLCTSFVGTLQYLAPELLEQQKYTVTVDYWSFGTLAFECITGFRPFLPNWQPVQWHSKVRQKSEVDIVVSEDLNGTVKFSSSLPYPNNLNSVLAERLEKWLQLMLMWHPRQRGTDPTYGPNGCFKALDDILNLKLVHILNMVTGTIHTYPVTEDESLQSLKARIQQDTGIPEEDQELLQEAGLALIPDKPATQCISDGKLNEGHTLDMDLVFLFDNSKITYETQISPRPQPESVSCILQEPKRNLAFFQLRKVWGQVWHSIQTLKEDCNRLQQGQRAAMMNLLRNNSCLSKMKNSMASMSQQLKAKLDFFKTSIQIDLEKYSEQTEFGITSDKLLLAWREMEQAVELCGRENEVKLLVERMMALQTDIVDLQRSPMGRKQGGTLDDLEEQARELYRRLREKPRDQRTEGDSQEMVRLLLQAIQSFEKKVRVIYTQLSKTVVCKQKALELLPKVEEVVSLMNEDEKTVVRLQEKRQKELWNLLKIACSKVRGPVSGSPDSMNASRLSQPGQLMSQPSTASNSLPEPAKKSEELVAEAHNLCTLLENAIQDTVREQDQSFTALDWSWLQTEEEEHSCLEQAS
Chain of Calcium/calmodulin-dependent protein kinase type II subunit beta (Homo sapiens) (Q13554 whole entry): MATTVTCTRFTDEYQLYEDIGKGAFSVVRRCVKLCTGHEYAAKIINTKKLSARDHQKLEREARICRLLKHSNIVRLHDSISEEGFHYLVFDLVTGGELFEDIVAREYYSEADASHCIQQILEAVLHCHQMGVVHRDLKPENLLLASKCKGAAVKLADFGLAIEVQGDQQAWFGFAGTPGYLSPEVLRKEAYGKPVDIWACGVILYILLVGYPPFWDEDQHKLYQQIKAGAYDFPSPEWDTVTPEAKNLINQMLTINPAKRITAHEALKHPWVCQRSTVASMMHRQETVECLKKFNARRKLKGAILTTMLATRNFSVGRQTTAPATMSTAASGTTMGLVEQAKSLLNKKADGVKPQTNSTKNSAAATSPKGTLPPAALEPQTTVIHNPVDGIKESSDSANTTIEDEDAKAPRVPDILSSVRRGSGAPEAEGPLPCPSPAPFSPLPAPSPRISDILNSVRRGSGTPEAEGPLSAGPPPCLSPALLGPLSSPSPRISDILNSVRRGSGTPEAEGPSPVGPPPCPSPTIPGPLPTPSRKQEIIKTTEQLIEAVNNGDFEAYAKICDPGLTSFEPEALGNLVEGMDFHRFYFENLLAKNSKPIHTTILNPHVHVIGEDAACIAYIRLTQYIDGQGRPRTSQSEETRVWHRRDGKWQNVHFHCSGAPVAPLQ

C[C@@H](Nc1ccn2ncc(-c3cnn(CCO)c3)c2n1)c1cc(F)ccc1OCC(F)F
half-life at 1 µM [1]: 5.25 h
inhibition [2]: > 80%
inhibition [3]: < 50%
fraction unbound [4]: 0.121
inhibition in vivo at 5 mg/kg (BaF3 [5]): 64%
inhibition [6]: < 50%
Cmax [7]: 1570 ng/mL
inhibition [8]: < 50%
Activity [9]: Non-Toxic
half-life [10]: 7.2 h
pIC50 (BaF3 [11]): 9.70
inhibition [12]: < 50%
pIC50 (BaF3 [13]): 8.80
AUC(0-inf) [14]: 2140 ng·h/mL
inhibition [15]: < 50%
pIC50 [16]: < 5.00
AUC(0-inf) [17]: 540 ng·h/mL
inhibition [18]: < 50%
inhibition [19]: < 50%
Activity [20]: Non-Toxic
CL/F [21]: 158 mL/min/kg
inhibition [22]: < 50%
Activity [23]: Non-Toxic
Activity [24]: Non-Toxic
bioavailability [25]: 92%
inhibition [26]: < 50%
pIC50 (BaF3 [27]): 9.52
inhibition [28]: < 50%
inhibition in vivo at 100 mg/kg (BaF3 [29]): 99%
inhibition [30]: < 50%
inhibition [31]: > 80%
Activity [32]: Non-Toxic
inhibition [33]: < 50%
CL/F [34]: 9.17 mL/min/kg
inhibition [35]: < 50%
inhibition [36]: > 80%
inhibition [37]: < 50%
inhibition [38]: < 50%
inhibition [39]: < 50%
